Data from patent US10526325B2, “Bicyclic heterocyclic derivatives” (Merck Patent GmbH, priority 2015, dated 2020).
Where two headings read alike, the source gives them in different places.

How the values were obtained:
[1] = molecular target: PDHK2 (Homo sapiens (Human), UniProt Q15119); assay: Biochemical activity testing of PDHK2: PDC inactivation assay; conditions: human rec PDHK2, porcine heart PDC, 5 μM ATP, read-out: IC50 PDHK2 (enzyme assay)
From the text: Biochemical Activity Testing of PDHK2: PDC Inactivation Assay
The biochemical activity assay for PDHK2 is based on the inactivation of PDC through phosphorylation by PDHK2. The assay is run in two steps: the enzymatic PDHK2 reaction in which isolated PDC is phosphorylated by PDHK2 with ATP as co-substrate and the PDC activity assay in which pyruvate and NAD are converted to acetyl-CoA and NADH. The PDC activity correlates to the increase in NADH and thereby is detectable directly via the increasing fluorescence signal (Exc 340 nm, Em 450 nm). Inhibition of PDHK2 results in a lower phosphorylation status and thereby a less decrease in activity of PDC and a stronger increase in NADH fluorescence signal.
The PDC inactivation assay is performed in Greiner 384-well microtiter plates and is used for high throughput screen. 4 μl of PDHK2 (human, rec, Carna Bioscience, 10 ng/μl-137 nM final concentration) and PDC (isolated from porcine heart, Sigma-Aldrich, 20 mU/ml final concentration) are incubated in the absence or presence of the test compound (10 dilution concentrations) for 30 min at room temperature in kinase buffer (15 mM potassium phosphate buffer, pH 7.0, 60 mM KCl, 1.5 mM DTT, 2.5 mM MgCl2, 0.0125% (w/v) BSA, 0.125% Pluronic F-68). The kinase reaction is started by the addition of 4 μl ATP substrate solution (fc 5 μM in kinase buffer). After 30 min incubation at 37° C. 40 μl of PDC reaction solution (100 mM Tris/HCl, pH 7.8, 0.5 mM EDTA, 1 mM MgCl2, 50 mM NaF, 0.25 mM Coenzyme A, 5 mM pyruvate, 1 mM NAD, 5 mM DTT, 1 mM thiamine pyrophosphate) is added. The first fluorescence measurement is performed on a Perkin Elmer Envision (Exc 340 nm, Em 450 nm). The reaction is incubated for 45 min at room temperature. Afterwards a second fluorescence measurement is performed and the PDC activity is calculated by the difference between both measurements. As full value for the PDHK2 assay the inhibitor-free PDHK2 reaction is used. The pharmacological zero value used is DCA (Sigma-Aldrich) in a final concentration of 3 mM. The inhibitory values […] were determined using either the program Symyx Assay Explorer® or Condosseo® from GeneData.

[2] = molecular target: human PDHK2 (12-407) (Homo sapiens (Human), UniProt Q15119); assay: Isothermal titration calorimetry (ITC) binding; conditions: ITC at 30° C., pH 7.5
Method: Isothermal Titration Calorimetry
ITC measurements were performed with a VP-ITC micro calorimeter (Microcal, LLC/GE Healthcare Bio-Sciences Aft Uppsala, Sweden). In general titrations were performed by titrating the protein (50 μM) to the test compound (5 μM) in 12 μl injections. All binding experiments were carried out at 30° C. In general the test compounds were diluted form DMSO stock solutions into the measurement buffer with a maximum final concentration of 1% DMSO. The measurement buffer was 20 mM HEPES, 135 mM KCl, 1 mM TCEP, 2 mM MgCl2, 15 mM NaH2PO4, pH 7.5. The human PDHK2 (12-407) was produced in E. coli as his-tagged protein and purified by affinity chromatography. The tag was removed by side specific proteolysis. Before titration the protein buffer was changed to the measurement buffer containing the same DMSO concentration as the test compound dilution. ITC data analysis was performed using Origin 7 calorimetry software from the same supplier. For most measurements a binding model of one binding site was assumed. According to the applied mathematical model it is possible to calculate the binding constant (KA), the observed binding enthalpy (ΔH^obs) as well as the stoichiometry (N) of the formed complex.
Preceding analysis the raw data was corrected for the heats of dilution by extrapolating from the saturation value from the end of titration. In order to allow for direct comparison between the respective experimental series and protein preparations the protein concentration was corrected by referencing titrations to a well behaved standard inhibitor. The apparent stoichiometry values defined the fraction of binding competent protein and compensated for relative errors in protein concentration measurements. This corrected protein concentration was used to set up ITC experiment series with test compounds. Any deviations from ideal 1:1 stoichiometry observed here were attributed to errors in compound concentration. This nominal compound concentration was corrected as well to achieve 1:1 stoichiometry in the fit.

[3] = test system: PDH-E1alpha (pSer300) in HEK293T cells; assay: Cellular immunofluorescence assay, PDH-E1alpha (pSer300) in HEK293T cells; type: cell-based, human; conditions: 5 hours incubation, anti-PDH-E1alpha (pSer300) immunofluorescence, read-out: IC50 (cell data)
Method: Cellular Assay for Determination of Compound Activities
Compound activities were determined in a cellular immunofluorescence assay. Human HEK293T cells were seeded into black 384-well plates with clear bottom and grown overnight.
Next day, test compounds were added to the wells and the plates incubated for 5 hours. Following this, cells were fixed with formaldehyde, permeabilised and blocked. The primary antibody, Anti-PDH-E1alpha (pSer300), AP1064 (Merck Millipore) was added and incubated overnight in the plate wells. Next, cells were washed and the secondary antibody, Alexa Fluor 488, goat anti-rabbit ab (A-11008, Invitrogen) was added together with Hoechst 33258 (H3569, Invitrogen) and incubated for 1 hour in the plate wells. Finally, cells were washed and the plates were measured on the laser scanning cytometer acumen hci (TTpLabtech).
The raw data were normalized against a pharmacological inhibitor control and dose response curves were generated by plotting the percent effect values using the software package Genedata screener (Genedata).

Row | SMILES | IC50 [1] [nM] | Kd [2] [nM] | IC50 ([3]; Homo sapiens, HEK-293T) [nM] | IC50 [3] [nM]
1 | C[C@@H]1CN(C(=O)[C@@](C)(O)C(F)(F)F)Cc2cnn(-c3ccc(F)cc3F)c21 [Compound A20, (R)-1-[(R)-1-(2,4-Difluoro-phenyl)-7-methyl-1,4,6,7-tetrahydro-pyrazolo[4,3-c]pyridin-5-yl]-3,3,3-trifluoro-2-hydroxy-2-methyl-propan-1-one] | < 300 | < 300 | < 300 | –
2 | C[C@@H]1CN(C(=O)[C@@](C)(O)C(F)(F)F)Cc2cnn(C(C)(C)C)c21 [Compound A22, (R)-1-((R)-1-tert-Butyl-7-methyl-1,4,6,7-tetrahydro-pyrazolo[4,3-c]pyridin-5-yl)-3,3,3-trifluoro-2-hydroxy-2-methyl-propan-1-one] | < 300 | < 300 | < 300 | –
3 | C[C@@H]1CN(C(=O)[C@@](C)(O)C(F)(F)F)Cc2cnn(-c3ccccc3F)c21 [Compound A24, (R)-3,3,3-Trifluoro-1-[(R)-1-(2-fluoro-phenyl)-7-methyl-1,4,6,7-tetrahydro-pyrazolo[4,3-c]pyridin-5-yl]-2-hydroxy-2-methyl-propan-1-one] | < 300 | < 300 | < 300 | –
4 | C[C@@H]1CN(C(=O)[C@@](C)(O)C(F)(F)F)Cc2cn[nH]c21 [Compound A28, (R)-3,3,3-Trifluoro-2-hydroxy-2-methyl-1-((R)-7-methyl-1,4,6,7-tetrahydro-pyrazolo[4,3-c]pyridin-5-yl)-propan-1-one] | 300 to 3000 | < 300 | 3000 to 50000 | –
5 | C[C@@H]1CN(C(=O)[C@@](C)(O)C(F)(F)F)Cc2cnn(-c3ncccc3F)c21 [Compound A32, (R)-3,3,3-Trifluoro-1-[(R)-1-(3-fluoro-pyridin-2-yl)-7-methyl-1,4,6,7-tetrahydro-pyrazolo[4,3-c]pyridin-5-yl]-2-hydroxy-2-methyl-propan-1-one] | < 300 | < 300 | < 300 | –
6 | C[C@@H]1CN(C(=O)[C@@](C)(O)C(F)(F)F)Cc2cnn(-c3ncc(F)cc3F)c21 [Compound A34, (R)-1-[(R)-1-(3,5-Difluoro-pyridin-2-yl)-7-methyl-1,4,6,7-tetrahydro-pyrazolo[4,3-c]pyridin-5-yl]-3,3,3-trifluoro-2-hydroxy-2-methyl-propan-1-one] | < 300 | < 300 | < 300 | –
7 | COc1ncc(F)c(-n2ncc3c2[C@@H](C)CN(C(=O)[C@@](C)(O)C(F)(F)F)C3)n1 [Compound A37, (R)-3,3,3-Trifluoro-1-[(S)-1-(5-fluoro-2-methoxy-pyrimidin-4-yl)-7-methyl-1,4,6,7-tetrahydro-pyrazolo[4,3-c]pyridin-5-yl]-2-hydroxy-2-methyl-propan-1-one] | 300 to 3000 | 300 to 3000 | 3000 to 50000 | –
8 | C[C@@H]1CN(C(=O)[C@@](C)(O)C(F)(F)F)Cc2cnn(C3CCC(O)CC3)c21 (stereo partly drawn) [Compound A38, (R)-3,3,3-Trifluoro-2-hydroxy-1-[(R)-1-(4-hydroxy-cyclohexyl)-7-methyl-1,4,6,7-tetrahydro-pyrazolo[4,3-c]pyridin-5-yl]-2-methyl-propan-1-one] | < 300 | < 300 | < 300 | –
9 | C[C@@H]1CN(C(=O)[C@@](C)(O)C(F)(F)F)Cc2cnn(-c3ccc(F)cn3)c21 [Compound A40, (R)-3,3,3-Trifluoro-1-[(R)-1-(5-fluoro-pyridin-2-yl)-7-methyl-1,4,6,7-tetrahydro-pyrazolo[4,3-c]pyridin-5-yl]-2-hydroxy-2-methyl-propan-1-one] | < 300 | < 300 | < 300 | –
10 | C[C@@](O)(C(=O)N1CCc2ncn(-c3ccccc3)c2C1)C(F)(F)F [Compound A43, (R)-3,3,3-Trifluoro-2-hydroxy-2-methyl-1-(3-phenyl-3,4,6,7-tetrahydro-imidazo[4,5-c]pyridin-5-yl)-propan-1-one] | 300 to 3000 | < 300 | – | 300 to 3000
11 | C[C@@](O)(C(=O)N1CCc2c(nnn2-c2ccccc2)C1)C(F)(F)F [Compound A46, (R)-3,3,3-Trifluoro-2-hydroxy-2-methyl-1-(1-phenyl-1,4,6,7-tetrahydro-[1,2,3]triazolo[4,5-c]pyridin-5-yl)-propan-1-one] | 300 to 3000 | < 300 | 3000 to 50000 | –
12 | C[C@@](O)(C(=O)N1CCc2c(nnn2-c2ccc(F)cc2)C1)C(F)(F)F [Compound A47, (R)-3,3,3-Trifluoro-1-[1-(4-fluoro-phenyl)-1,4,6,7-tetrahydro-[1,2,3]triazolo[4,5-c]pyridin-5-yl]-2-hydroxy-2-methyl-propan-1-one] | 300 to 3000 | < 300 | 3000 to 50000 | –
13 | C[C@@](O)(C(=O)N1CCn2c(-c3ccccc3)cnc2C1)C(F)(F)F [Compound A49, (R)-3,3,3-Trifluoro-2-hydroxy-2-methyl-1-(3-phenyl-5,6-dihydro-8H-imidazo[1,2-a]pyrazin-7-yl)-propan-1-one] | 300 to 3000 | < 300 | 3000 to 50000 | –
14 | C[C@@](O)(C(=O)N1CCn2c(cnc2-c2ccccc2)C1)C(F)(F)F [Compound A50, (R)-3,3,3-Trifluoro-2-hydroxy-2-methyl-1-(3-phenyl-5,6-dihydro-8H-imidazo-[1,5-a]pyrazin-7-yl)-propan-1-one] | 300 to 3000 | < 300 | 3000 to 50000 | –
15 | C[C@@](O)(C(=O)N1CCn2c(cnc2-c2ccc(F)cc2)C1)C(F)(F)F [Compound A51, (R)-3,3,3-Trifluoro-1-[3-(4-fluoro-phenyl)-5,6-dihydro-8H-imidazo[1,5-a]pyrazin-7-yl]-2-hydroxy-2-methyl-propan-1-one] | 300 to 3000 | < 300 | 3000 to 50000 | –
16 | C[C@@H]1CN(C(=O)[C@@](C)(O)C(F)(F)F)Cc2cnc(-c3ccc(F)cc3)n21 [Compound A52, (R)-3,3,3-Trifluoro-1-[(R)-3-(4-fluoro-phenyl)-5-methyl-5,6-dihydro-8H-imidazo[1,5-a]pyrazin-7-yl]-2-hydroxy-2-methyl-propan-1-one] | < 300 | < 300 | < 300 | –
17 | C[C@@H]1CN(C(=O)[C@@](C)(O)C(F)(F)F)Cc2cnc(-c3ccc(F)cc3F)n21 [Compound A54, (R)-1-[(R)-3-(2,4-Difluoro-phenyl)-5-methyl-5,6-dihydro-8H-imidazo[1,5-a]pyrazin-7-yl]-3,3,3-trifluoro-2-hydroxy-2-methyl-propan-1-one] | < 300 | < 300 | < 300 | –
